Test results taken from US11312690B2, “Compounds, compositions, methods for treating diseases, and methods for preparing compounds” (UNIVERSITY OF LOUISVILLE RESEARCH FOUNDATION, INC., priority 2015, dated 2022).

Key:
[1] = molecular target: T1, interaction of K-Ras with RGL2 (Homo sapiens, UniProt O15211); test: Ras/RalGEF binding, immunoprecipitation and immunoblot from co-transfected HEK-293 cells; settings: 10 μM, HA K-Ras 12v and GFP-RGL2, IP/IB, FIG. 3B
T1 construct: expressed in transfected cells; host or cells: HEK-293
T1 sequence (O15211 1-777): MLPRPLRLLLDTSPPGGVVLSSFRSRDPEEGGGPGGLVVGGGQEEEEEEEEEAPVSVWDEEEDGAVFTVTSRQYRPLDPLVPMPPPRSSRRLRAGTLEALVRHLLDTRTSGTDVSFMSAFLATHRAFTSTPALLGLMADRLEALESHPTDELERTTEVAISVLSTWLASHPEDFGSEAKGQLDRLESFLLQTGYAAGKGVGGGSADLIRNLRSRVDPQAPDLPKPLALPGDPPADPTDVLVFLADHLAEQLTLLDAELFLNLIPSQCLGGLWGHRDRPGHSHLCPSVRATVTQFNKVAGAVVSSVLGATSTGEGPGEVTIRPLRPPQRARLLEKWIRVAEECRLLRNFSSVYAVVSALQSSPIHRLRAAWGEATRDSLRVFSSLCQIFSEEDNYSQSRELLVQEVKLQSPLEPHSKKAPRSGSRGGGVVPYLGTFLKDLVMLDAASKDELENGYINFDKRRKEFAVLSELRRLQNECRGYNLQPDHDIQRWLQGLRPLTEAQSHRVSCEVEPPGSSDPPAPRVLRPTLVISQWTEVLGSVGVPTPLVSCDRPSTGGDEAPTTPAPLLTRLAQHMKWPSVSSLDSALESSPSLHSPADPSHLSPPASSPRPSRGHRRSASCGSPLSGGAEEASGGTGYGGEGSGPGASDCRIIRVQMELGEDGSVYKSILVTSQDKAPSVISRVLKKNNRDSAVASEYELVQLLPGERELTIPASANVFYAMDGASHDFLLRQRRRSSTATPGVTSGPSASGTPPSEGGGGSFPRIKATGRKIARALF

[2] = molecular target: T2, interaction of K-Ras with RalGDS (Homo sapiens, UniProt Q12967); test: as above; settings: 10 μM, HA K-Ras 12v and GFP-RalGDS, IP/IB, FIG. 3A
T2 construct: expressed in transfected cells; host or cells: HEK-293
T2 sequence (Q12967 1-914): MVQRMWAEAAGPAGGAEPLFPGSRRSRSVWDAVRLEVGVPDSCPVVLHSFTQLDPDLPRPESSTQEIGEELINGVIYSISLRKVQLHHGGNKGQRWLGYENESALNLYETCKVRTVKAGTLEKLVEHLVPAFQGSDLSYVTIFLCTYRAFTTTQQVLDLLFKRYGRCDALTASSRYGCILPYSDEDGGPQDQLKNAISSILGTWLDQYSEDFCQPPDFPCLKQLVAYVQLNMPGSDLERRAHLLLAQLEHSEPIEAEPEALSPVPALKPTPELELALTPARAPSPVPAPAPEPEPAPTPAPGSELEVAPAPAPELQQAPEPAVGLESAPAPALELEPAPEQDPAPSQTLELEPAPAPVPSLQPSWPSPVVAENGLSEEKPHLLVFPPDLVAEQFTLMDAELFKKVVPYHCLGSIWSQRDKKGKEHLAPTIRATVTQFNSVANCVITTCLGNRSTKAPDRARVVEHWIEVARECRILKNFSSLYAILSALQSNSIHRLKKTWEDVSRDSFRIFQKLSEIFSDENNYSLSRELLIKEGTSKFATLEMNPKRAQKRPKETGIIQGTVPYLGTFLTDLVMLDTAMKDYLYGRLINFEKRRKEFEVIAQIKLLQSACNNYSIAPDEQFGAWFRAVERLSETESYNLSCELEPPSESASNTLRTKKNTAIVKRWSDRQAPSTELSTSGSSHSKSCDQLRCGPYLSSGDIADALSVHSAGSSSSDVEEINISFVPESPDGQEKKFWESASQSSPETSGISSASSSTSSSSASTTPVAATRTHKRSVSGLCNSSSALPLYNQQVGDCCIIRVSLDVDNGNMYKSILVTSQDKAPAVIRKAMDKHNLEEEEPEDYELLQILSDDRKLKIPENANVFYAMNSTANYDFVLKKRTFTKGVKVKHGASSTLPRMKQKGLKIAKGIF

Mia-PaCa-2 cells = test: Mia-PaCa-2 sub-cutaneous xenograft, primary tumor growth and lung metastasis; format: in vivo, NRG mice; settings: 10 mg/kg ip every other day for 2 weeks, scored one week later
Method: Some compounds of Formula (I) suppress pancreatic cancer cell metastasis—FIG. 6. NRG mice were sub-cutaneously inoculated with PBS (“no tumor cells”) or 5×10^6 Ras driven Mia-PaCa-2 cells. Mice were allowed to recover for 1 week and then injected (ip) with PBS/DMSO carrier or 10 mg/kg of compound I-1 every other day for 2 weeks. One week later, mice were scored for primary tumor growth and lung metastasis.

COc1cccc(CNc2nc(CN(C)Cc3cccc(OC)c3)nc3sc(C)c(C)c23)c1 [Compound I-1]
inhibition of RGL2 (Ras/RGL2 interaction) [1]: also inhibited RGL2
stable association of Ras and RalGDS [2]: inhibited the stable association of Ras and RalGDS
effects on the primary tumor (Mia-PaCa-2 cells): not obvious
lung metastasis (Mia-PaCa-2 cells; FIG. 6): metastasis was inhibited
